Experimental data from EP3939596A1, “A COMPOSITION FOR TREATING HELMINTH INFESTATION IN A MAMMAL” (Bimeda Animal Health Limited, priority 2020, dated 2022).

Tests used:
[1] = Stability of α-hederin solutions on storage (visual); assay type: physicochemical; settings: for stability of solution: 10 wt.% α-hederin in 85.5 wt.% 1,2-Propanediol and 4.5 wt.% Benzyl alcohol
[2] = Solubility of α-hederin in 1,2-propanediol; assay type: physicochemical
adult fluke = test: In-vivo efficacy study: fluke counts at post mortem in infected sheep after oral treatment, compared with untreated control sheep; settings: 50 mg/kg
Method: Four sheep infected with adult fluke were treated with an IVL-11 oral solution formulation of Table 1: Table 1
The solution was orally administered to the sheep to provide a dosage of α-hederin of 50 mg/kg and then worm counts compared to counts in untreated control sheep. Table 2: summary of efficacy following treatment of four sheep with IVL-11 orally at 50mg/kg compared with fluke counts in untreated control sheep

[3] = Plasma/blood level after oral administration; assay type: in vivo; settings: treated sheep
Text: The Applicant has addressed the problems of the prior art by identifying a natural compound present in ivy (Hedera) that is effective at treating helminth infestations in a mammal. The natural compound is α-hederin, a water soluble pentacyclic triterpenoid saponin. The compound is quite a large molecule and would not be anticipated to be absorbed from the rumen following oral administration, but would be expected to be absorbed from the small intestine. […] This is highly surprising given the low plasma levels of α-hederin in treated sheep.
IVL-11 is a relatively large particle and so would not be anticipated to be absorbed from the rumen following oral administration. Instead, absorption from the small intestine would be predicted.

For α-hederin [IVL-11], the “stability (appearance) of solution in 1,2-propanediol” value (from here on “stability (appearance) of solution”) ([1]; 5 % solution, 13 days at room temperature) was “cloudy at the top”, the “stability (appearance) of solution” value ([1]; 10 % solution, 13 days at room temperature) was “became cloudy” and the stability of solution ([1]; 6 months at 5°C) was “stable”. The stability of solution ([1]; 6 months at room temperature) was “stable”, the “stability (appearance) of solution” value ([1]; 35°C, over 3 weeks) was “no visible changes” and the “solubility in 1,2-propanediol” value ([2]; 5% α-hederin in 1,2-propanediol) was “soluble”. The “solubility in 1,2-propanediol” value ([2]; 10% α-hederin in 1,2-propanediol) was “soluble”, the “Arithmetic mean number of fluke at post mortem” value (adult fluke; oral solution, 4 sheep) was 83 and the “% efficacy (reduction in average fluke numbers compared to the control sheep)” value (adult fluke; oral, vs untreated control sheep) was 21.6%. For the same substance, the “plasma / blood levels following administration in vivo” value [3] was “low”.
